Measured values: patent publication US8288410B2, “3-substituted quinolinium and 7H-indolo[2,3-c]quinolinium salts as new antiinfectives” (Florida Agricultural and Mechanical University, priority 2008, dated 2012)
Structures can show the parent of a compound that is named as a salt. Where two headings read alike, the source gives them in different places.

How the values were obtained:
[1] = tested on: Cryptococcus neoformans ATCC 90113; experiment: Antifungal susceptibility testing, Cryptococcus neoformans; type: cell-based
Procedure, shortened: (§1)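 Modified NCCLS broth microdilution, samples serially diluted from 20 μg/mL top concentration, inocula per 0.5 McFarland (C. albicans in SDB or RPMI 1640; C. neoformans in SDB; A. fumigatus in YM broth or RPMI-1640 + 5% Alamar Blue). IC50 from percent growth versus concentration; MIC read visually as lowest concentration without detectable growth.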

[2] = tested on: Candida albicans ATTC 90028; experiment: Antifungal susceptibility testing, Candida albicans; type: cell-based
Procedure, shortened: as §1

[3] = tested on: Aspergillus fumigatus ATCC 90906; experiment: Antifungal susceptibility testing, Aspergillus fumigatus; type: cell-based
Procedure, shortened: as §1

Vero Cells = experiment: Cytotoxicity, Vero cells; type: cell-based
MRSA = experiment: Antibacterial susceptibility testing, MRSA; type: cell-based, methicillin resistant Staphylococcus aureus
Procedure, shortened: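 MRSA, sourced from the American Type Culture Collection, was tested for susceptibility with a modified National Committee for Clinical Laboratory Standards method. DMSO sample solutions were serially diluted in saline and placed in duplicate in 96 well microplates. Broth-diluted bacterial suspensions, standardized to 0.5 McFarland, brought each well to 200 μL, with the highest test concentration at 20 μg/mL.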

Compound	A fu MIC [3] [µg/mL]	TC50 Vero Cells (Vero Cells; Table 2) [µg/mL]	Cn IC50 ([1]; Table 2) [µg/mL]	Cn MFC ([1]; Table 2) [µg/mL]	Cn MIC ([1]; Table 2) [µg/mL]	Ca IC50 ([2]; Table 2) [µg/mL]	Ca MFC ([2]; Table 2) [µg/mL]	Ca MIC ([2]; Table 2) [µg/mL]	A fu MFC [3] [µg/mL]	A fu IC50 ([3]; Table 2, Aspergillus fumigatus) [µg/mL]	MRSA IC50 (MRSA; Table 2) [µg/mL]	MRSA MFC (MRSA; Table 2) [µg/mL]	MRSA MIC (MRSA; Table 2) [µg/mL]	also measured
FC(F)(F)c1ccccc1Sc1cc2ccccc2[n+](CCCCCc2ccccc2)c1.[I-]	–	–	–	–	–	–	–	–	–	–	–	–	–	melting point: 227 to 229 °C
c1ccc(Nc2cc3ccccc3[n+](CCCCCC3CCCCC3)c2)cc1 (as salt: iodide) [JRE-3-19-1]	–	–	–	–	–	–	–	–	–	–	–	–	–	melting point: 156 to 158 °C
Clc1ccc(Nc2cc3ccccc3[n+](CCCCCc3ccccc3)c2)cc1 [JRE-2-89-1]	50	>25	–	–	–	–	–	–	–	–	–	–	–	melting point: 182 to 183 °C; IC50 ([1]; ATCC90113, Table 2, read-out: Cn IC50): 4 µg/mL; MFC ([1]; ATCC90113, Table 2, read-out: Cn MFC): 13 µg/mL; MIC ([1]; ATCC90113, Table 2, read-out: Cn MIC): 6.3 µg/mL; IC50 ([2]; ATTC90028, Table 2, read-out: Ca IC50): 15 µg/mL; MFC ([2]; ATTC90028, Table 2, read-out: Ca MFC): > 20 µg/mL; MIC ([2]; ATTC90028, Table 2, read-out: Ca MIC): 50 µg/mL; IC50 ([3]; ATCC90906, Table 2, Aspergillus fumigatus, read-out: A fu IC50): 10 µg/mL; IC50 (MRSA; Staphylococcus aureus, Table 2, read-out: MRSA IC50): 1.5 µg/mL; MIC (MRSA; Staphylococcus aureus, Table 2, read-out: MRSA MIC): 3.1 µg/mL
C[n+]1cc(N(CCCCCC2CCCCC2)c2cccc(C(F)(F)F)c2)cc2ccccc21.[I-] [JRE-3-61-1]	2.5	>10	0.85	2.5	1.3	1.0	2.5	2.5	10	1.5	0.45	1.3	0.63	–
COc1ccc(N(CCCCCC2CCCCC2)c2cc3ccccc3[n+](C)c2)cc1.[I-] [JRE-3-68-1]	1.3	>10	0.50	5.0	1.3	0.80	1.3	1.3	10	0.80	0.50	1.3	1.3	–
COc1cccc(N(CCCCCC2CCCCC2)c2cc3ccccc3[n+](C)c2)c1.[I-] [JRE-3-69-1]	1.3	>10	0.55	5.0	1.3	0.85	2.5	2.5	10	0.70	0.50	1.3	1.3	–
C[n+]1cc2c(c3ccc(Cl)cc3n2CCCCCC2CCCCC2)c2ccccc21.[I-] [JRE-3-84-1]	2.5	–	–	–	–	–	–	–	5.0	–	–	–	–	Cn IC50 ([1]; Table 3): 0.80 µg/mL; Cn MFC ([1]; Table 3): 2.5 µg/mL; Cn MIC ([1]; Table 3): 1.3 µg/mL; Ca IC50 ([2]; Table 3): 0.70 µg/mL; Ca MFC ([2]; Table 3): 2.5 µg/mL; Ca MIC ([2]; Table 3): 1.3 µg/mL; A fu IC50 ([3]; Table 3, Aspergillus fumigatus): 1.5 µg/mL; TC50 Vero Cells (Vero Cells; Table 3): >10 µg/mL; MRSA IC50 (MRSA; Table 3): 0.80 µg/mL; MRSA MFC (MRSA; Table 3): 1.3 µg/mL; MRSA MIC (MRSA; Table 3): 1.3 µg/mL
Clc1cccc(Nc2cc3ccccc3[n+](CCCCCC3CCCCC3)c2)c1.[I-] [JRE-3-88-1]	6.3	12.5	2.0	50	3.1	2.0	13	6.3	–	3.5	0.55	1.6	0.78	–
C[n+]1cc(N(CCCCCC2CCCCC2)c2ccc(OC(F)(F)F)cc2)cc2ccccc21.[I-] [JRE-3-99-1]	2.5	>10	0.70	1.3	1.3	0.45	10	1.3	2.5	0.95	0.65	1.3	1.3	–
C[n+]1cc2c(c3ccccc3n2CCCCCC2CCCCC2)c2ccccc21.[I-] [JRE-3-100-1]	5.0	–	–	–	–	–	–	–	10	–	–	–	–	Cn IC50 ([1]; Table 3): 1.5 µg/mL; Cn MFC ([1]; Table 3): 5.0 µg/mL; Cn MIC ([1]; Table 3): 2.5 µg/mL; Ca IC50 ([2]; Table 3): 0.80 µg/mL; Ca MFC ([2]; Table 3): 10 µg/mL; Ca MIC ([2]; Table 3): 2.5 µg/mL; A fu IC50 ([3]; Table 3, Aspergillus fumigatus): 3.5 µg/mL; TC50 Vero Cells (Vero Cells; Table 3): >10 µg/mL; MRSA IC50 (MRSA; Table 3): 0.70 µg/mL; MRSA MFC (MRSA; Table 3): 1.3 µg/mL; MRSA MIC (MRSA; Table 3): 1.3 µg/mL
C[n+]1cc(N(CCCCCC2CCCCC2)c2cccc(Cl)c2)cc2ccccc21.[I-] [JRE-4-3-1]	2.5	>10	0.85	5.0	1.3	0.90	10	2.5	10	1.0	0.80	2.5	1.3	–
C[n+]1cc(N(CCCCCC2CCCCC2)c2ccc(Cl)cc2)cc2ccccc21.[I-] [JRE-4-9-1]	1.3	10	0.40	2.5	0.63	0.45	5.0	1.3	10	0.80	0.40	0.63	0.63	–
C[n+]1cc2c(c3ccc(C(F)(F)F)cc3n2CCCCCC2CCCCC2)c2ccccc21.[I-] [JRE-5-31-1]	5.0	–	–	–	–	–	–	–	10	–	–	–	–	Cn IC50 ([1]; Table 3): 0.85 µg/mL; Cn MFC ([1]; Table 3): 2.5 µg/mL; Cn MIC ([1]; Table 3): 1.3 µg/mL; Ca IC50 ([2]; Table 3): 0.80 µg/mL; Ca MFC ([2]; Table 3): — ((-) = >20 μg/mL); Ca MIC ([2]; Table 3): 1.3 µg/mL; A fu IC50 ([3]; Table 3, Aspergillus fumigatus): 1.5 µg/mL; TC50 Vero Cells (Vero Cells; Table 3): >10 µg/mL; MRSA IC50 (MRSA; Table 3): 0.70 µg/mL; MRSA MFC (MRSA; Table 3): 1.3 µg/mL; MRSA MIC (MRSA; Table 3): 1.3 µg/mL
FC(F)(F)c1cccc(Sc2cc3ccccc3[n+](CCCCCc3ccccc3)c2)c1.[I-] [XYZ-IV-54]	–	–	–	–	–	–	–	–	–	–	–	–	–	Cn IC50 ([1]; Table 1): 1.5 µg/mL; Cn MFC ([1]; Table 1): 20 µg/mL; Cn MIC ([1]; Table 1): 2.5 µg/mL; Ca IC50 ([2]; Table 1): 6.0 µg/mL; Ca MFC ([2]; Table 1): — ((-) = >20 μg/mL); Ca MIC ([2]; Table 1): 10 µg/mL; A fu IC50 ([3]; Table 1, Aspergillus fumigatus): 1.5 µg/mL; A fu MFC ([3]; Table 1, Aspergillus fumigatus): — ((-) = >20 μg/mL); A fu MIC ([3]; Table 1, Aspergillus fumigatus): 5.0 µg/mL; TC50 Vero Cells (Vero Cells; Table 1): NC (NC = Not toxic at 10 μg/mL); MRS IC50 (MRSA; Table 1): 0.85 µg/mL; MRS MFC (MRSA; Table 1): 10 µg/mL; MRS MIC (MRSA; Table 1): 2.5 µg/mL
